“And” between values parts separate entries of the source, which are not always exact repeats. Identical values can stand only once. Like-named read-outs stand apart in the source and are kept apart here.
Experiment: in vivo
Type: in vivo
Conditions: rat
Protocol: […] Whole blood samples were taken from a lateral tail vein for plasma separation at time points 0 min, 30 min, 1 h, 2 h and 4 h after p.o. dosing; and 0 min, 15 min, 30 min, 1 h, and 2 h after i.v. dosing, while the terminal samples at time point 6 h after dosing (p.o and Lv.) were taken by cardiac puncture. All time points were taken from a single rat, and all experiments were carried out in triplicate.
The samples were thawn at room temperature and prepared by protein precipitation with ratio 1:2 of plasma and acetonitrile and were centrifuged 10 minutes at 16 100×g (Eppendorf 5415D, Eppendorf AG, Hamburg, Germany) before injection to UPLCIMSMS system. The standard samples were prepared similarly, after spiking blank plasma samples to 0.5, 2, 5, 10, 20, 50, 200, 500, 1000 and 2000 ng/ml of the analyte compounds.
The pharmacokinetic parameters for study compounds were calculated by WinNonlin Pro (Pharsight Corp, CA) using standard noncompartmental methods. The volume of distribution (Vd) was based on the terminal phase. The elimination phase half-life (t1/2) was calculated by least-squares regression analysis of the terminal linear part of the log concentration-time curve. The area under the plasma concentration-time curve (AUC) was determined by use of the linear trapezoidal rule up to the last measurable concentration and thereafter by extrapolation of the terminal elimination phase to infinity. The area under the plasma concentration-time curve without terminal extrapolation is reported as AUC 0-6 h. The mean residence time (MRT) representing the average amount of time a compound remains in a compartment or system was calculated extrapolating the drug concentration profile to infinity. The maximum plasma concentration (cmax) and the time to cmax (tmax) were derived directly from the plasma concentration data. The tentative oral bioavailability (F) was calculated by dividing the AUC after p.o. administration by the AUC after i.v. administration taking into account the differences in dose, i.e. F=AUC(p.o.)/Dose(p.o.)/AUC(i.v)/[…], and reported as percentages (%).
A Waters Acquity chromatographic system (Waters Corp., Milford, Mass., USA) with autosampler, vacuum degasser and column oven was used. The analytical column used for all compounds was a Waters BEH ShieldRP18, (2.1×50 mm, 1.7 μm, Waters Corp, Milford, Mass., USA) together with an on-line filter. The eluents were 0.1% acetic acid (A, pH 3.2) and acetonitrile (B). A linear gradient elution from 5% B to 35% B in 0-2 minutes, from 35% B to 85% B in 2.0-3.0 min was employed, followed by 1 min isocratic elution with […] and column equilibration. The flow rate was 0.5 ml/min and the column oven temperature was 35° C. LC/MS/MS/data was acquired with a Micromass Quattro Premier triple quadrupole mass spectrometer equipped with a LockSpray electrospray ionization source. A negative ion mode ionisation was used. The multiple reaction monitoring (MRM) mode of detection was used. The mass spectrometer and UPLC system were operated under Micromass MassLynx 4.1 software. Complete LC/MS/MS parameters are presented in Appendix I.
Detection/quantitation limits between 2 ng/ml and 10 ng/ml in plasma were obtained for each compound. Calibration curves for quantification were generated by fitting the ratio of the external standard peak areas as a function of the concentration, excluding the point of origin and using 1/x weighting and linear or quadratic fitting. The ranges up to 2000 ng/ml were fitted for calibration curves. […] The overall precisions 12.0-17.0% were calculated from the standard samples (two injection/concentration), using Snedecor equation S=(Σd^2/2n)^0.5, in which S=precision, d is the difference between duplicates expressed as % of the mean value, and N is the number of standard concentration. The concentrations of each study compound in the samples are shown in the Appendices IV-VI.

[1] = 2 mg/kg i.v., individual animals, 2 mg/kg
[2] = in vivo, iv, 2 mg/kg, 2 mg/kg i.v., individual animals, read-out: t1/2
[3] = in vivo, iv, 2 mg/kg, i.v. 2 mg/kg, mean n=3, read-out: t1/2
[4] = 20 mg/kg p.o., individual animals, 20 mg/kg

## CC(C)c1cc(-c2ccc(Cl)cc2)cc(C(C)C)c1O [4-(p-Cl—Ph)-propofol, 4-(para-Chlorophenyl)-propofol]
plasma, po, 20 mg/kg p.o. vs 2 mg/kg i.v., read-out: F (%) tentative oral bioavailability
  bioavailability: 0%
2 mg/kg i.v., individual animals
  tmax: 0.25 h
[1]
  AUC: 36.3 µg·min/mL and 40.8 µg·min/mL and 68.8 µg·min/mL
  CL/F: 55.1 mL/min/kg and 49.1 mL/min/kg and 29.1 mL/min/kg
  MRT: 1.51 h and 0.782 h
  cmax: 0.46 µg/mL and 0.78 µg/mL
  t1/2: 1.54 h and 1.78 h
i.v. 2 mg/kg, mean n=3
  ADC 0-6 h: 46.6 µg·min/mL
  AUC: 48.6 µg·min/mL
  CL/F: 44.4 mL/min/kg
i.v. dosing, compared to rat liver blood flow
  clearance (in words): in the range of hepatic blood flow
[2]
  half-life: 1.52 h
[3]
  half-life: 1.61 h
Iv (2 mg/kg), 15 min, individual animals, listed as CK2-3, 2 mg/kg
  concentration in plasma: 398 ng/mL and 456 ng/mL
Iv (2 mg/kg), 30 min, individual animals, listed as CK2-3, 2 mg/kg
  concentration in plasma: 123 ng/mL and 187 ng/mL and 307 ng/mL
Iv (2 mg/kg), 1 h, individual animals, listed as CK2-3, 2 mg/kg
  concentration in plasma: 149 ng/mL and 156 ng/mL
Iv (2 mg/kg), 2 h, individual animals, listed as CK2-3, 2 mg/kg
  concentration in plasma: 62.4 ng/mL and 74.2 ng/mL
Iv (2 mg/kg), 6 h, individual animals, listed as CK2-3, 2 mg/kg
  concentration in plasma: 14.6 ng/mL and 14.9 ng/mL
  detection in plasma after oral (p.o.) administration: detected in plasma only after i.v. administration
Listed as CK-2-3
  detection in plasma after oral (p.o.) administration: not detected
plasma, iv, 2 mg/kg, i.v. administration, read-out: half life (converted)
  half-life: ~1.5 h
plasma, iv, 2 mg/kg, iv (2 mg/kg), 15 min, individual animals
  concentration at 15 min: 784 ng/mL
plasma, iv, 2 mg/kg, iv (2 mg/kg), 1 h, individual animals
  concentration at 1 h: 79.7 ng/mL
plasma, iv, 2 mg/kg, iv (2 mg/kg), 2 h, individual animals
  concentration at 2 h: 63.9 ng/mL
plasma, iv, 2 mg/kg, iv (2 mg/kg), 6 h, individual animals
  concentration at 6 h: 13.1 ng/mL

## CC(C)c1cc(-c2ccc(Cl)c(F)c2)cc(C(C)C)c1O [p-(3-F,4-Cl—Ph)-propofol, Para-(3-Fluoro,4-chlorophenyl)-propofol]
[1]
  CL/F: 24.9 mL/min/kg and 30.4 mL/min/kg and 32.5 mL/min/kg
  t1/2: 1.53 h and 1.65 h
[4]
  CL/F: 153 mL/min/kg and 434 mL/min/kg and 105 mL/min/kg
  t1/2: 7.8 h and 18.5 h and 13.1 h
i.v. 2 mg/kg, mean n=3
  CL/F: 29.3 mL/min/kg
In vivo
  bioavailability: ~18%
In vivo, iv
  clearance (in words): intermediate
  half life (in words): intermediate
In vivo, iv, 2 mg/kg
  ADC 0-6 h: 64.1 µg·min/mL
  tmax: 0.25 h
[2]
  half-life: 1.36 h
[3]
  half-life: 1.52 h
In vivo, iv, 2 mg/kg, iv (2 mg/kg), 30 min, individual animals, read-out: concentration in plasma
  concentration at 30 min: 444 ng/mL
In vivo, iv, 2 mg/kg, iv (2 mg/kg), 1 h, individual animals, read-out: concentration in plasma
  concentration at 1 h: 316 ng/mL
In vivo, iv, 2 mg/kg, iv (2 mg/kg), 2 h, individual animals, read-out: concentration in plasma
  concentration at 2 h: 90.3 ng/mL
In vivo, iv, 2 mg/kg, iv (2 mg/kg), 6 h, individual animals, read-out: concentration in plasma
  concentration at 6 h: 24.1 ng/mL
In vivo, po, 20 mg/kg
  ADC 0-6 h: 34.6 µg·min/mL
  CL: 41.1 mL/min/kg
  Tmax: 0.5 h
  Vd: 54.4 L/kg
  bioavailability: 17.8%
  tmax: 0.5 h
In vivo, po, 20 mg/kg, p.o. 20 mg/kg, mean n=3
  Vd/F: 306 L/kg
In vivo, po, 20 mg/kg, p.o. 20 mg/kg, mean n=3, read-out: CL/F
  CL/F: 231 mL/min/kg
In vivo, po, 20 mg/kg, p.o. 20 mg/kg, mean n=3, read-out: t1/2
  half-life: 13.2 h
Iv (2 mg/kg), 15 min, individual animals, listed as CK2-9, 2 mg/kg
  concentration in plasma: 1100 ng/mL and 689 ng/mL and 535 ng/mL
Iv (2 mg/kg), 30 min, individual animals, listed as CK2-9, 2 mg/kg
  concentration in plasma: 499 ng/mL and 513 ng/mL
Iv (2 mg/kg), 1 h, individual animals, listed as CK2-9, 2 mg/kg
  concentration in plasma: 329 ng/mL and 297 ng/mL
Iv (2 mg/kg), 2 h, individual animals, listed as CK2-9, 2 mg/kg
  concentration in plasma: 74.0 ng/mL and 81.3 ng/mL
Iv (2 mg/kg), 6 h, individual animals, listed as CK2-9, 2 mg/kg
  concentration in plasma: 44.0 ng/mL and 46.6 ng/mL
  detection in plasma after oral (p.o.) administration: observed in plasma
Po (20 mg/kg), 30 min, individual animals, listed as CK2-9, 20 mg/kg
  concentration in plasma: 172 ng/mL and 213 ng/mL and 63.0 ng/mL
Po (20 mg/kg), 1 h, individual animals, listed as CK2-9, 20 mg/kg
  concentration in plasma: 182 ng/mL and 26.6 ng/mL and 121 ng/mL
Po (20 mg/kg), 2 h, individual animals, listed as CK2-9, 20 mg/kg
  concentration in plasma: 134 ng/mL and 26.2 ng/mL and 168 ng/mL
Po (20 mg/kg), 4 h, individual animals, listed as CK2-9, 20 mg/kg
  concentration in plasma: 21.5 ng/mL and 97.6 ng/mL
Po (20 mg/kg), 6 h, individual animals, listed as CK2-9, 20 mg/kg
  concentration in plasma: 121 ng/mL and 22.9 ng/mL and 128 ng/mL
